Test results taken from publication PMC8092220, “Insights into the Relationship between Cobamide Synthase and the Cell Membrane” (mBio, 2021).

Biological target: T1, cobamide (5′ phosphate) synthase (CobS) (Salmonella enterica, UniProt Q05602)
T1 construct: CobS^WT reconstituted in proteoliposomes
Assay: DRaCALA with […]α-RP, CobS proteoliposomes (Kd […] for DHPC-solubilized CobS); also protection in limited trypsin proteolysis
Type: binding

T1 sequence (Q05602 whole entry): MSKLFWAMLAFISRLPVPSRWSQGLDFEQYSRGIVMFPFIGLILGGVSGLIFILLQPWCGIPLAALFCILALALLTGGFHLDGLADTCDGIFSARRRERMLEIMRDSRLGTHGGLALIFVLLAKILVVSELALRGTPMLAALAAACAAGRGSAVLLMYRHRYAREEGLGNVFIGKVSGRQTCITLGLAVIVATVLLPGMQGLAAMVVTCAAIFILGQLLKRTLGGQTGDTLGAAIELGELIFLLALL

Cc1cc2ncn([C@H]3O[C@H](COP(=O)(O)O)[C@@H](O)[C@H]3O)c2cc1C [α-RP, N1-(5-phospho-alpha-D-ribosyl)-5,6-dimethylbenzimidazole]
Kd: 580 nM
